Legend:
Assay type in all cases: functional
Staphylococcus aureus = test: Antimicrobial activity of the compound against Staphylococcus aureus was determined
Pseudomonas aeruginosa = test: Antimicrobial activity against Pseudomonas aeruginosa was determined
[1] = tested on: Staphylococcus epidermidis; test: Antimicrobial activity against Staphylococcus epidermidis was determined
Bacillus subtilis = test: Antimicrobial activity of the compound against Bacillus subtilis was determined
Bacillus cereus = test: Antimicrobial activity against Bacillus cereus was determined
Aspergillus niger = test: Antimicrobial activity against Aspergillus niger was determined
Candida albicans = test: Antimicrobial activity against Candida albicans was determined

Row | Compound | Zone of inhibition (Staphylococcus aureus) | Zone of inhibition [1] | Zone of inhibition (Bacillus subtilis) | Zone of inhibition (Aspergillus niger) | Zone of inhibition (Candida albicans) | also measured
1 | CSc1sc(-c2nnc(SC)n2-c2ccc([N+](=O)[O-])cc2)c2c1C(=O)CCC2 | 18 mm | 24 mm | 21 mm | – | – | Zone of inhibition (Pseudomonas aeruginosa): 14 mm; Zone of inhibition (Bacillus cereus): 12 mm
2 | CNc1nnc(-c2sc(SC)c3c2CCCC3=O)s1 | – | – | 28 mm | 11 mm | 12 mm | –
3 | CCCCn1c(S)nnc1-c1sc(SC)c2c1CCCC2=O | 17 mm | 26 mm | 14 mm | – | – | –
4 | CSc1sc(-c2nnc(S)n2-c2ccc([N+](=O)[O-])cc2)c2c1C(=O)CCC2 | 18 mm | 25 mm | 23 mm | – | – | Zone of inhibition (Pseudomonas aeruginosa): 14 mm
5 | CCCCn1c(SC)nnc1-c1sc(SC)c2c1CCCC2=O | 17 mm | 26 mm | 16 mm | – | – | Zone of inhibition (Bacillus cereus): 16 mm
6 | CCNc1nnc(-c2sc(SC)c3c2CCCC3=O)s1 | – | – | 20 mm | 8 mm | 13 mm | –
7 | C[C@@H]1[C@H](O)[C@@H](C)/C=C/C=C/C=C/C=C/C=C/C=C/C=C/[C@H](O[C@@H]2O[C@H](C)[C@@H](O)[C@H](N)[C@@H]2O)C[C@@H]2O[C@](O)(C[C@@H](O)C[C@@H](O)[C@H](O)CC[C@@H](O)C[C@@H](O)CC(=O)O[C@H]1C)C[C@H](O)[C@H]2C(=O)O [AMPHOTERICIN B] | – | – | – | 22 mm | 22 mm | –
8 | CCCCNc1nnc(-c2sc(SC)c3c2CCCC3=O)s1 | – | – | 22 mm | 9 mm | 11 mm | –
9 | CSc1sc(-c2nnc(Nc3ccc([N+](=O)[O-])cc3)s2)c2c1C(=O)CCC2 | – | – | 33 mm | 10 mm | 14 mm | –
10 | O=C1CN(/N=C/c2ccc([N+](=O)[O-])o2)C(=O)N1 [NITROFURANTOIN] | 21 mm | – | 18 mm | – | – | Zone of inhibition (Pseudomonas aeruginosa): 21 mm; Zone of inhibition (Bacillus cereus): 20 mm
11 | GENTAMICIN | – | – | – | – | – | inhibition zone (IZ) [1]: 20 mm; inhibition zone (IZ) (Bacillus subtilis): 30 mm; inhibition zone (IZ) (Bacillus cereus): 28 mm
12 | CSc1sc(-c2nnc(NC3CCCCC3)s2)c2c1C(=O)CCC2 | – | – | – | 12 mm | – | –
13 | COc1ccc(-n2c(S)nnc2-c2sc(SC)c3c2CCCC3=O)cc1 | – | – | 11 mm | – | – | –

Reference: ChEMBL document CHEMBL1144314, “Synthesis and antibacterial activity of 1-[1,2,4-triazol-3-yl] and 1-[1,3,4-thiadiazol-2-yl]-3-methylthio-6,7-dihydrobenzo[c]thiophen-4(5H)ones” (2005)
